Experimental data from PubChem BioAssay AID1648 (Sanford-Burnham Center for Chemical Genomics, 2009).
The source made the active and inactive calls. The rule behind the calls is not given here.

Target: Serine/threonine-protein kinase mTOR (Homo sapiens) (UniProt P42345)
Test: binders of mTOR FRB domain, biophysical, NMR (AID 1648)
Details: NMR binding to FRB domain, chemical shift

Serine/threonine-protein kinase mTOR (Homo sapiens), sequence (P42345 2015-2114): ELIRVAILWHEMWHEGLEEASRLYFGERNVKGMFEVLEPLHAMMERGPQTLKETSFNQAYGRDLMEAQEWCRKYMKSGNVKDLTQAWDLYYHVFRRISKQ

O=C(Nc1nncs1)c1c(F)c(F)c(F)c(F)c1F
Kd: > 4 mM (inactive)

C=Cc1c(C)c2cc3[nH]c(cc4nc(cc5nc(cc1[nH]2)C(C)=C5CCC(=O)O)C(CCC(=O)O)=C4C)c(C)c3C=C
Kd: > 4 mM (inactive)

Nc1c2c3c(sc2nc(=O)n1N)CCCC3
Kd: > 4 mM (inactive)

OCc1ccc(-c2ccccn2)s1
Kd: > 4 mM (inactive)

Nc1ccc(-c2cnco2)cc1
Kd: > 4 mM (inactive)

O=C(Nc1c[nH]c(=O)[nH]c1=O)c1ccccc1F
Kd: > 4 mM (inactive)

Cn1c(CN2CC(c3ccccc3)CC2=O)n[nH]c1=S (centres undefined)
Kd: > 4 mM (inactive)

S=c1nc[nH]c2c1cnn2-c1ccccc1
Kd: > 4 mM (inactive)

COc1ccc2c(CC(=O)O)coc2c1
Kd: > 4 mM (inactive)

Cc1ccc(SCc2nc(-c3cccnc3)no2)cc1
Kd: > 4 mM (inactive)

O=C(Nc1ccc2c(c1)OCCO2)c1ccncc1
Kd: > 4 mM (inactive)

O=C(O[C@@H]1Cc2c(O)cc(O)cc2O[C@@H]1c1ccc(O)c(O)c1)c1cc(O)c(O)c(O)c1
Kd: > 4 mM (inactive)

COc1ccc2c(c1OC)C(=O)O[C@H]2[C@H]1c2cc3c(cc2CCN1C)OCO3
Kd: > 4 mM (inactive)

Nc1ccc(F)cc1F
Kd: > 4 mM (inactive)

COc1ccc2ccc(=O)oc2c1CC=C(C)C
Kd: > 4 mM (inactive)

C=CCCCCCCCCCCCC(O)CC(O)COC(C)=O (centres undefined) (tested in a mixture with another compound)
Kd: > 4 mM (inactive)

COc1ccc(N2C(=N)C(C)(C)NC2=O)cc1
Kd: > 4 mM (inactive)

NC(=O)CC[C@H](N)C(=O)O
Kd: > 4 mM (inactive)

COc1nc(N2CCOCC2)nc(N)c1[N+](=O)[O-]
Kd: > 4 mM (inactive)

COCCn1cnc2cc(C)c(C)cc21
Kd: > 4 mM (inactive)

NCc1csc(-c2ccccc2)n1
Kd: > 4 mM (inactive)

Cc1ccccc1NC(=O)c1ocnc1C
Kd: > 4 mM (inactive)

CN(C)S(=O)(=O)c1ccc(NC=O)cc1
Kd: > 4 mM (inactive)

CC(C)CCCC(C)C1CCC2C3=CC[C@H]4C[C@@H](O)CC[C@]4(C)C3CC[C@@]21C (some centres undefined)
Kd: > 4 mM (inactive)

OCCNC(=S)Nc1ccc(F)cc1
Kd: > 4 mM (inactive)

CC(C)c1ccc2c(c1O)CC[C@H]1C3=C(CC[C@]21C)C(=O)OC3
Kd: > 4 mM (inactive)

Cc1cc(C)n(C2CCS(=O)(=O)C2)n1 (centres undefined)
Kd: > 4 mM (inactive)

COc1ccccc1-c1noc(-c2ccco2)n1
Kd: > 4 mM (inactive)

O=C1NCCCC1C(=O)N1CCCCC1 (centres undefined)
Kd: > 4 mM (inactive)

CNC[C@@H](O)c1ccc(O)c(O)c1
Kd: > 4 mM (inactive)

OCc1ccncc1
Kd: > 4 mM (inactive)

O=c1nc(C(F)(F)F)nc2ccccn12
Kd: > 4 mM (inactive)

CN1CCOc2cc(C(=O)O)ccc21
Kd: > 4 mM (inactive)

CCOc1ccc2ccccc2c1C(=O)N1CCOCC1
Kd: > 4 mM (inactive)

Cc1occc(=O)c1O
Kd: > 4 mM (inactive)

O=C(Cc1c(F)cccc1Cl)Nc1cccnc1
Kd: > 4 mM (inactive)

CCc1cc(=O)[nH]c(SCC(=O)NCCOC)n1
Kd: > 4 mM (inactive)

Cc1cc(C)n2c(SCc3c(C)noc3C)nnc2n1
Kd: > 4 mM (inactive)

Nc1nnc(-c2ccncc2)s1
Kd: > 4 mM (inactive)

c1ccc(Cn2c(Nn3cnnc3)nc3ccccc32)cc1
Kd: > 4 mM (inactive)

O=C(Nc1cccnc1)Nc1ccc2c(c1)OCO2
Kd: > 4 mM (inactive)

CCCCCC1C(=O)CCC1CC(=O)O (centres undefined)
Kd: > 4 mM (inactive)

CC(=O)Nc1ccc(NC(=O)C2CC2)cc1
Kd: > 4 mM (inactive)

COc1ccc(C)cc1S(=O)(=O)NC1CCCC1
Kd: > 4 mM (inactive)

O=C1C=CC(=O)N1c1ccccc1O
Kd: > 4 mM (inactive)

NCc1ccc(S(N)(=O)=O)cc1
Kd: > 4 mM (inactive)

COC(=O)c1ccc2nc[nH]c2c1
Kd: > 4 mM (inactive)

CSc1ccc2nnc(-c3cccnc3)n2n1
Kd: > 4 mM (inactive)

S=c1ccc(N2CCCCC2)n[nH]1
Kd: > 4 mM (inactive)

O=C(NCc1ccc2c(c1)OCO2)c1cccs1
Kd: > 4 mM (inactive)

Nc1nc(SCc2ccccc2)ns1
Kd: > 4 mM (inactive)

COC(=O)CCC(C)C1CCC2C3CCC4C[C@H](O)CC[C@]4(C)C3C[C@H](O)[C@]12C (some centres undefined)
Kd: > 4 mM (inactive)

CN(C)c1nc(N2CCOCC2)c2cnn(C)c2n1
Kd: > 4 mM (inactive)

Cc1nc2sc3c(c2c(=N)n1N)CC(C)(C)OC3
Kd: > 4 mM (inactive)

NC(=O)c1ccc(N=Cc2ccc[nH]2)cc1
Kd: > 4 mM (inactive)

Cc1nnc(SCC(=O)Nc2ccccc2)[nH]c1=O
Kd: > 4 mM (inactive)

NC(=O)c1ccsc1NC(=O)c1ccco1
Kd: > 4 mM (inactive)

Cc1nn2c(nc1=O)SCC(c1ccccc1)=N2
Kd: > 4 mM (inactive)

CC(=O)Nc1ccc(NC(C)=O)c(C(F)(F)F)c1
Kd: > 4 mM (inactive)

O=c1cc(-c2ccc(O)cc2)[nH]c(=S)[nH]1
Kd: > 4 mM (inactive)

COc1ccccc1NC(=O)c1cc[n+]([O-])cc1
Kd: > 4 mM (inactive)

CC(=O)c1cc(C)ccc1OC(=O)c1cccnc1
Kd: > 4 mM (inactive)

O=C(NCc1cccc(Cl)c1)c1cccnc1
Kd: > 4 mM (inactive)

CN(C)c1ccc(C2CC(=O)CC(=O)C2)cc1
Kd: > 4 mM (inactive)

COC(=O)CSc1nnc(-c2ccc(C(=O)O)cc2)o1
Kd: > 4 mM (inactive)

CC(C)CCCC(C)[C@H]1CCC2C3CC=C4CC(=O)CC[C@]4(C)C3CC[C@@]21C (some centres undefined)
Kd: > 4 mM (inactive)

COc1cc(OC)c(-c2nc3cnccc3n2C)cc1OC
Kd: > 4 mM (inactive)

CCOC(=O)c1c(C)nc2sccn12
Kd: > 4 mM (inactive)

CC(=O)Nc1ccc(Cl)c(C(N)=O)c1
Kd: > 4 mM (inactive)

NC(=O)c1c(Cl)nsc1-c1ccccc1Cl
Kd: > 4 mM (inactive)

COC(=O)C[C@H]1C2(C)CC34OC5(C)O[C@@]6([C@H](OC)C(OC(=O)C(C)C)[C@]7(C)C(/C(=C(/OC)C(C)C)C(=O)O[C@H]7c7ccoc7)[C@@]6(O5)[C@H](OC)[C@@]3(OC)C2OC(C)=O)[C@]14C (some centres undefined)
Kd: > 4 mM (inactive)

CC(=O)c1ccc2c(c1)OCCO2
Kd: > 4 mM (inactive)

CC(C)c1c(O)ccc2c1CCC1C(C)(C)CCC[C@]21C (some centres undefined)
Kd: > 4 mM (inactive)

COCCOc1nc2ccccc2nc1C
Kd: > 4 mM (inactive)

Cc1[nH]c(=O)[nH]c(=O)c1N1CCOCC1
Kd: > 4 mM (inactive)

CSc1nnc(CN2CCSCC2)n1C
Kd: > 4 mM (inactive)

Nc1ccc2[nH]ccc2c1
Kd: > 4 mM (inactive)

CCOc1ccc(C(=O)c2ccncc2)cc1
Kd: > 4 mM (inactive)

COC(=O)[C@@]1(C)CCC[C@]2(C)c3ccc(O)c(C(C)C)c3CCC12 (some centres undefined)
Kd: > 4 mM (inactive)

O=C(O)CN1C(=O)c2ccc(C(=O)O)cc2C1=O
Kd: > 4 mM (inactive)

Nc1ncnc(NC2CCS(=O)(=O)C2)c1[N+](=O)[O-] (centres undefined)
Kd: > 4 mM (inactive)

CC[C@]12CCCN3CCc4c(n(c5ccccc45)[C@](O)(C(=O)OC)C1)[C@@H]32
Kd: > 4 mM (inactive)

CC(=O)OC1CCC2(C)C3CC(=O)C4(C)C(CC5OC6(CCC(C)CO6)[C@@H](C)C54)C3CC[C@H]2C1 (some centres undefined)
Kd: > 4 mM (inactive)

CN1CCC(N2CCN(C)CC2)CC1
Kd: > 4 mM (inactive)
